Measured values reported in patent US7705030B2, “Amino-5-(5-membered)hetero-arylimidazolone compounds and the use thereof for β-secretase modulation” (Wyeth LLC, priority 2005, dated 2010).

Key:
[1] = target: human BACE1 (Homo sapiens, UniProt P56817); assay: Fluorescent kinetic assay: Evaluation of BACE-1 Binding Affinity of Test Compounds; format: biochemical; settings: 10 nM enzyme, 25 μM substrate WABC-6, 50 mM Na-Acetate pH 4.5, room temperature
Description: Evaluation of BACE-1 Binding Affinity of Test Compounds
Fluorescent Kinetic Assays
Final Assay Conditions: 10 nM human BACE1 (or 10 nM Murine BACE1, 1.5 nM human BACE2), 25 μM substrate (WABC-6, MW 1549.6, from AnaSpec), Buffer: 50 mM Na-Acetate, pH 4.5, 0.05% CHAPS, 25% PBS, room temperature. Na-Acetate was from Aldrich, Cat.# 24, 124-5, CHAPS was from Research Organics, Cat. # 1304C 1×, PBS was from Mediatech (Cellgro), Cat# 21-031-CV, peptide substrate Abz[…]pa was from AnaSpec, Peptide Name: WABC-6 Determination of stock substrate (Abz[…]pa) concentration: ˜25 mM stock solution is made in DMSO using the peptide weight and MW, and diluted to ˜25 μM (1:1000) in 1×PBS. Concentration is determined by absorbance at 354 nm using an extinction coefficient ε of 18172 M^−1 cm^−1, the concentration of stock substrate is corrected, and the substrate stock stored in small aliquots in −80° C. [Substrate Stock]=ABS^354 nm*10^6/18172 (in […]) The extinction coefficient ε^354 nm was adapted from TACE peptide substrate, which had the same quencher-fluorophore pair.
Determination of Stock Enzyme Concentration: the stock concentration of each enzyme is determined by absorbance at 280 nm using an ε of 64150 M^−1 cm^−1 for hBACE1 and MuBACE1, 62870 M^−1 cm^−1 for hBACE2 in 6 M Guanidinium Hydrochloride (from Research Organics, Cat. # 5134G-2), pH ˜6. The extinction coefficient ε^280 nm for each enzyme was calculated based on known amino acid composition and published extinction coefficients for Trp ([…]) and Tyr ([…]) residues (Anal. Biochem. 182, 319-326).
Dilution and mixing steps: total reaction volume: 100 μL
2× inhibitor dilutions in buffer A(66.7 mM Na-Acetate, pH 4.5, 0.0667% CHAPS) were prepared,
4× enzyme dilution in buffer A(66.7 mM Na-Acetate, pH 4.5, 0.0667% CHAPS) were prepared,
100 μM substrate dilution in 1×PBS was prepared, and
50 μL 2× Inhibitor, 25 μL 100 μM substrate are added to each well of 96-well plate (from DYNEX Technologies, VWR #: 11311-046), immediately followed by 25 μL 4× enzyme (added to the inhibitor and substrate mix), and the fluorescence readings are initiated.
Fluorescence Readings: Readings at λex 320 nm and λem 420 nm are taken every 40 sec for 30 min at room temperature and the linear slope for substrate cleavage rate (vi) determined.
Testing at least 10 different inhibitor concentrations is preferred.

human BACE1, sequence (P56817 46-501): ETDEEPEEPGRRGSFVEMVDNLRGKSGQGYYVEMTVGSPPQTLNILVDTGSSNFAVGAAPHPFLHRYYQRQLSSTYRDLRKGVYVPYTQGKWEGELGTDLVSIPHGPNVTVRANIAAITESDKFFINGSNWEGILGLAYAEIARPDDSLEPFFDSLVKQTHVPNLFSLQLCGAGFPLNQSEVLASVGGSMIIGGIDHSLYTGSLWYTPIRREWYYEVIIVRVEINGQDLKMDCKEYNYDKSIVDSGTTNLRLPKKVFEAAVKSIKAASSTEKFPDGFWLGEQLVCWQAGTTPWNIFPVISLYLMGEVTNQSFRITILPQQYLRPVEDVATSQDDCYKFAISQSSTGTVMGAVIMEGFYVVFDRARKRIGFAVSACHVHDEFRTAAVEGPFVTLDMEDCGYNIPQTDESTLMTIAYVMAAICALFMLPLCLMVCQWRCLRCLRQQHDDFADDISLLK

Compound	IC50 [1] [µM]	melting point [°C]
CN1C(=O)C(c2ccsc2)(c2cccc(-c3cccnc3F)c2)N=C1N (stereo not drawn) [Example 34]	0.01 to 0.1	213
Cc1nc(F)ccc1-c1cccc(C2(c3ccsc3)N=C(N)N(C)C2=O)c1 (stereo not drawn) [Example 36]	> 1	140
COc1cncc(-c2cccc(C3(c4ccsc4)N=C(N)N(C)C3=O)c2)c1 (stereo not drawn) [Example 37]	0.01 to 0.1	197
CN1C(=O)C(c2cccc(-c3cncnc3)c2)(c2cscn2)N=C1N (stereo not drawn) [Example 41, 2-Amino-3-methyl-5-(3-pyrimidin-5-ylphenyl)-5-(1,3-thiazol-4-yl)-3,5-dihydro-4H-imidazol-4-one]	0.11 to 1	234 to 237
CCn1ccc(C2(c3cccc(-c4cncnc4)c3)N=C(N)N(C)C2=O)c1 (stereo not drawn) [Example 52, 2-amino-5-(1-ethyl-1H-pyrrol-3-yl)-3-methyl-5-(3-pyrimidin-5-ylphenyl)-3,5-dihydro-4H-imidazol-4-one]	0.11 to 1	100 to 102
CN1C(=O)C(c2cccc(-c3cncnc3)c2)(c2ccn(CC(F)(F)F)c2)N=C1N (stereo not drawn) [Example 54]	0.11 to 1	103 to 105
CN1C(=O)C(c2cc[nH]c2)(c2cccc(OCc3ccccc3)c2)N=C1N (stereo not drawn) [Example 58, 2-amino-5-(3-benzyloxyphenyl)-5-(1H-pyrrol-3-yl)-3-methyl-3,5-dihydro-4H-imidazol-4-one]	> 1	98 to 100
CN1C(=O)C(c2cc[nH]c2)(c2cccc(O)c2)N=C1N (stereo not drawn) [Example 59, 2-amino-5-(3-hydroxyphenyl)-5-(1H-pyrrol-3-yl)-3-methyl-3,5-dihydro-4H-imidazol-4-one]	> 1	142 to 145
CN1C(=O)C(c2cccc(-c3cccnc3F)c2)(c2cnn(CCF)c2)N=C1N (stereo not drawn) [Example 68, 2-amino-5-[1-(2-fluoroethyl)-1H-pyrazol-4-yl]-5-[3-(2-fluoropyridin-3-yl)phenyl]-3-methyl-3,5-dihydro-4H-imidazol-4-one]	0.01 to 0.1	195 to 197
CN1C(=O)C(c2cccc(-c3cccnc3F)c2)(c2cnn(CC(F)(F)F)c2)N=C1N (stereo not drawn) [Example 69, 2-amino-5-[3-(2-fluoropyridin-3-yl)phenyl]-3-methyl-5-[1-(2,2,2-trifluoroethyl)-1H-pyrazol-4-yl]-3,5-dihydro-4H-imidazol-4-one]	0.01 to 0.1	104 to 106
CN1C(=O)C(c2cccc(OCC3CC3)c2)(c2cnn(CCF)c2)N=C1N (stereo not drawn) [Example 70, 2-amino-5-[3-(cyclopropylmethoxy)phenyl]-5-[1-(2-fluoroethyl)-1H-pyrazol-4-yl]-3-methyl-3,5-dihydro-4H-imidazol-4-one]	0.11 to 1	70 to 72
CN1C(=O)C(c2cccc(OCC3CC3)c2)(c2cnn(CC(F)(F)F)c2)N=C1N (stereo not drawn) [Example 71, 2-amino-5-[3-(cyclopropylmethoxy)phenyl]-3-methyl-5-[1-(2,2,2-trifluoroethyl)-1H-pyrazol-4-yl]-3,5-dihydro-4H-imidazol-4-one]	0.11 to 1	78 to 80
CN1C(=O)C(c2ccc(OC(F)F)cc2)(c2cnn(CCF)c2)N=C1N (stereo not drawn) [Example 73]	> 1	140 to 142
CN1C(=O)C(c2ccc(OC(F)F)cc2)(c2cnn(CC(F)(F)F)c2)N=C1N (stereo not drawn) [Example 74]	> 1	70 to 72
CN1C(=O)C(c2ccc(OC(F)F)cc2)(c2cnn(Cc3ccccc3)c2)N=C1N (stereo not drawn) [Example 75]	> 1	74 to 76
COc1cccc(-c2cccc(C3(c4cnn(CC(F)(F)F)c4)N=C(N)N(C)C3=O)c2)c1 (stereo not drawn) [Example 82]	0.01 to 0.1	95 to 97
CCOc1cccc(-c2cccc(C3(c4cnn(CC(F)(F)F)c4)N=C(N)N(C)C3=O)c2)c1 (stereo not drawn) [Example 83]	0.01 to 0.1	88 to 90
CN1C(=O)C(c2cccc(-c3cc(F)ccc3F)c2)(c2cnn(CC(F)(F)F)c2)N=C1N (stereo not drawn) [Example 84]	0.11 to 1	98 to 100
COc1ccc(F)cc1-c1cccc(C2(c3cnn(CC(F)(F)F)c3)N=C(N)N(C)C2=O)c1 (stereo not drawn) [Example 85]	0.11 to 1	104 to 106
CN1C(=O)C(c2cccc(-c3cc(C#N)ccc3F)c2)(c2cnn(CC(F)(F)F)c2)N=C1N (stereo not drawn) [Example 86]	0.11 to 1	118 to 120

Compound	IC50 [1] [µM]	melting point [°C]
CN1C(=O)C(c2cccc(-c3cccc(F)c3F)c2)(c2cnn(CC(F)(F)F)c2)N=C1N (stereo not drawn) [Example 87]	0.01 to 0.1	103 to 105
CN1C(=O)C(c2cccc(-c3cccnc3)c2)(c2cnn(CC(F)(F)F)c2)N=C1N (stereo not drawn) [Example 88]	0.11 to 1	202 to 204
CN1C(=O)C(c2cccc(-c3cncnc3)c2)(c2cnn(CC(F)(F)F)c2)N=C1N (stereo not drawn) [Example 89]	0.11 to 1	223 to 225
CN1C(=O)C(c2cccc(OCc3ccccc3)c2)(c2cnn(CC(F)(F)F)c2)N=C1N (stereo not drawn) [Example 92, 2-amino-5-[3-(benzyloxy)phenyl]-3-methyl-5-[1-(2,2,2-trifluoroethyl)-1H-pyrazol-4-yl]-3,5-dihydro-4H-imidazol-4-one]	> 1	85 to 87
CN1C(=O)C(c2cccc(O)c2)(c2cnn(CC(F)(F)F)c2)N=C1N (stereo not drawn) [Example 93, 2-amino-5-(3-hydroxyphenyl)-3-methyl-5-[1-(2,2,2-trifluoroethyl)-1H-pyrazol-4-yl]-3,5-dihydro-4H-imidazol-4-one]	> 1	118 to 120
CC(C)n1cc(C2(c3ccc(F)c(-c4cccnc4F)c3)N=C(N)N(C)C2=O)cn1 (stereo not drawn) [Example 97]	0.01 to 0.1	115 to 117
COc1cccc(-c2cc(C3(c4cnn(C(C)C)c4)N=C(N)N(C)C3=O)ccc2F)c1 (stereo not drawn) [Example 98]	0.01 to 0.1	112 to 114
CCC(CC)Cn1cc(C2(c3cccc(-c4cccnc4F)c3)N=C(N)N(C)C2=O)cn1 (stereo not drawn) [Example 99]	0.01 to 0.1	75 to 80
CN1C(=O)C(c2cccc(-c3cccnc3F)c2)(c2cnn(C3CCCC3)c2)N=C1N (stereo not drawn) [Example 100]	0.01 to 0.1	106 to 109
CN1C(=O)C(c2cccc(-c3cccnc3F)c2)(c2cnn(CCC(C)(C)C)c2)N=C1N (stereo not drawn) [Example 101]	0.01 to 0.1	100 to 103
CC(C)CCn1cc(C2(c3cccc(-c4cccnc4F)c3)N=C(N)N(C)C2=O)cn1 (stereo not drawn) [Example 102]	0.01 to 0.1	86 to 90
CN1C(=O)C(c2cccc(-c3cccnc3F)c2)(c2cnn(Cc3ccccc3)c2)N=C1N (stereo not drawn) [Example 103]	0.01 to 0.1	94 to 97
CN1C(=O)C(c2cccc(-c3cccnc3F)c2)(c2cnn(CCC3CCCCC3)c2)N=C1N (stereo not drawn) [Example 104]	0.01 to 0.1	88 to 90
CN1C(=O)C(c2cccc(-c3cncnc3)c2)(c2cnn(C3CCCC3)c2)N=C1N (stereo not drawn) [Example 105]	0.01 to 0.1	112 to 115
CN1C(=O)C(c2cccc(-c3cncnc3)c2)(c2cnn(CCC(C)(C)C)c2)N=C1N (stereo not drawn) [Example 106]	0.01 to 0.1	93 to 96
CN1C(=O)C(c2cccc(-c3cncnc3)c2)(c2cnn(CCC3CCCCC3)c2)N=C1N (stereo not drawn) [Example 107]	0.01 to 0.1	102 to 105
CC(C)CCn1cc(C2(c3cccc(-c4cncnc4)c3)N=C(N)N(C)C2=O)cn1 (stereo not drawn) [Example 108]	0.01 to 0.1	87 to 90
COc1ccc(C2(c3ccc(-c4ccc(F)cc4)s3)N=C(N)N(C)C2=O)cc1C (stereo not drawn) [Example 110, 2-Amino-5-[5-(4-fluorophenyl)thien-2-yl]-5-(4-methoxy-3-methylphenyl)-3-methyl-3,5-dihydro-4H-imidazol-4-one]	0.11 to 1	110
CCC1(c2cc(C3(c4cccc(-c5cncnc5)c4)N=C(N)N(C)C3=O)cs2)OCCO1 (stereo not drawn) [Example 114]	0.01 to 0.1	105 to 112
